Calls of active or inactive are those of the source.
Assays:
Galanin receptor type 3 = molecular target: T1, Galanin receptor type 3 (Homo sapiens, UniProt O60755); test: Fluorescence-based cell-based primary high throughput dose response assay to identify antagonists of the Galanin Receptor 3 (GalR3).; format: functional
T1 sequence (O60755 whole entry): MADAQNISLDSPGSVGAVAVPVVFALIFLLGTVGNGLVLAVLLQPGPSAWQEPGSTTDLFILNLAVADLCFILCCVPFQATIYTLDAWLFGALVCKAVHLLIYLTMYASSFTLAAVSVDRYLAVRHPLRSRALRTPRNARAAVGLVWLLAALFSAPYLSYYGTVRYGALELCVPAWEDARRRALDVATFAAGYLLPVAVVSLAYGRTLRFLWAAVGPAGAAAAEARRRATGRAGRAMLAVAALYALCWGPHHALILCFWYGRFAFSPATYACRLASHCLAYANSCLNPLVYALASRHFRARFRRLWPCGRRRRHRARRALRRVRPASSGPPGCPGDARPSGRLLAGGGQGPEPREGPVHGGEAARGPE

cells = format: functional, cell-based; conditions: HEK-CNG
[1] = molecular target: T2, Replicative DNA helicase DnaB (Mycobacterium tuberculosis, UniProt P9WMR3); test: DnaB intein splicing inhibitors, dose response, biochemical, cell-free fluorescence (AID 449749); format: functional
T2 sequence (P9WMR3 whole entry): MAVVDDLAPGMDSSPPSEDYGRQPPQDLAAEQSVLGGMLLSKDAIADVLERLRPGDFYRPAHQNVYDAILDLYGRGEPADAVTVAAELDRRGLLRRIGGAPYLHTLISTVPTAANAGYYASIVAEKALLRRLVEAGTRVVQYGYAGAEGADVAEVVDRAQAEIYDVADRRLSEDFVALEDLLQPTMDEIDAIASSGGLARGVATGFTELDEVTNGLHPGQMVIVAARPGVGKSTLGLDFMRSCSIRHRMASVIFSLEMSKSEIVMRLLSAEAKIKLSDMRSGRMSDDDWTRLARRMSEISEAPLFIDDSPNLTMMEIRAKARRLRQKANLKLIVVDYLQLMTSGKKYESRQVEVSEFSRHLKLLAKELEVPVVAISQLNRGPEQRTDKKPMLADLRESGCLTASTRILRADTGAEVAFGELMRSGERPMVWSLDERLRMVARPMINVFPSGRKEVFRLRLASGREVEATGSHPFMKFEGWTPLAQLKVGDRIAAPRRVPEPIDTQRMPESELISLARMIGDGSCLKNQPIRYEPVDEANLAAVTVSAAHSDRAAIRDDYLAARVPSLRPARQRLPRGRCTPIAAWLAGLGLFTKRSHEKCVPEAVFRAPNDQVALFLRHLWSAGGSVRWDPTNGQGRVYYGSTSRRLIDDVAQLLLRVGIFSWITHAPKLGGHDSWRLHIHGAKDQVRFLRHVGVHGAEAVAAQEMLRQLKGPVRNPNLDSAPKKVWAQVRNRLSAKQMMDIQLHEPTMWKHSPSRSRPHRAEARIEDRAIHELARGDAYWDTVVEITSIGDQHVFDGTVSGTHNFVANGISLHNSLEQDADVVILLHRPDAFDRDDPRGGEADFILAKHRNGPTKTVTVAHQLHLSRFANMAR

Leucine aminopeptidase = molecular target: T3, Leucine aminopeptidase (Plasmodium falciparum 3D7, UniProt Q8IL11); test: P. falciparum M17LAP inhibitors, primary screen, biochemical, fluorogenic H-Leu-NHMec substrate, 1536-well (AID 1619); format: functional
T3 sequence (Q8IL11 whole entry): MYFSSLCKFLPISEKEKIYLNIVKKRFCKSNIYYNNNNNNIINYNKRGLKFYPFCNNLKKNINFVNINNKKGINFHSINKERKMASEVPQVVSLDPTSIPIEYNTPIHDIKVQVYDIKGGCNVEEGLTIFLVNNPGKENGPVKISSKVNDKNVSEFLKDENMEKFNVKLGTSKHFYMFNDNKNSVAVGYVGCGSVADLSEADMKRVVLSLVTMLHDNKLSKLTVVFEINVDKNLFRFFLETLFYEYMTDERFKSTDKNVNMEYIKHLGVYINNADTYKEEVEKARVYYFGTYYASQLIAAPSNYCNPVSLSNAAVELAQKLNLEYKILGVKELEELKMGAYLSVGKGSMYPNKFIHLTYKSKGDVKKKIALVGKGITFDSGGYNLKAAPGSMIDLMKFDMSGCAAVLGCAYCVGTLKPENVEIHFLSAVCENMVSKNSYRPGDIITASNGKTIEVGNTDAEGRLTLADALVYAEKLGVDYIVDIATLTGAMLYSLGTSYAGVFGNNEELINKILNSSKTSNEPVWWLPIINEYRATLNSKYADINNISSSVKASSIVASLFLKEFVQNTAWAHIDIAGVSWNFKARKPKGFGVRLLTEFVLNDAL

[2] = Intein inhibitors as potential Tuberculosis drugs, a cytotoxicity screen. [Related pubchem assays (depositor defined):AID2221, AID2223, AID434968, AID435010, AID449749, AID449750, AID489010]; format: functional
Protein RecA = molecular target: T4, Protein RecA (Mycobacterium tuberculosis, UniProt P9WHJ3); test: Fluorescence Cell-Free Homogeneous Dose Retest to Identify Inhibitors of RecA-Intein Splicing Activity. [Related pubchem assays (depositor defined):AID2097, AID2223, AID489010, AID492950]; format: functional
T4 sequence (P9WHJ3 whole entry): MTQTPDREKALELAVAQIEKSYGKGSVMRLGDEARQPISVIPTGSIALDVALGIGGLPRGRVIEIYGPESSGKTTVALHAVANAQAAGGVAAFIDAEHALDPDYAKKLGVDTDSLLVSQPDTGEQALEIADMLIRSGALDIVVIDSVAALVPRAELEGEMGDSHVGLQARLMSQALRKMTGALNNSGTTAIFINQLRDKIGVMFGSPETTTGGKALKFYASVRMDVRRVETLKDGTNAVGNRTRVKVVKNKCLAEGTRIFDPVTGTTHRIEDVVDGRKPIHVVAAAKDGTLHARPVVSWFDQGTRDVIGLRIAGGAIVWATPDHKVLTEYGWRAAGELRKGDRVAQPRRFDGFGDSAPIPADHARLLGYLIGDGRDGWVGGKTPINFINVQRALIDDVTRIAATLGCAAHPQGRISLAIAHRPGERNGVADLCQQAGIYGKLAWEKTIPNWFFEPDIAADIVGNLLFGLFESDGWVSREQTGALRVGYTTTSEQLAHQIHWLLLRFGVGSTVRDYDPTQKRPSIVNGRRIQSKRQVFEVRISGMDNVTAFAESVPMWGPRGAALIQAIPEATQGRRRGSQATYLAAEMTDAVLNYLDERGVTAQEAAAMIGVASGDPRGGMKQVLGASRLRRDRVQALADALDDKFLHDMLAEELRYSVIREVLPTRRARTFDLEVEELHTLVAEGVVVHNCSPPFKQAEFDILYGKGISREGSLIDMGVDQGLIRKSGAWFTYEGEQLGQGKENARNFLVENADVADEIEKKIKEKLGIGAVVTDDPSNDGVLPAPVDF

T-cell = test: loss of vesicle association with mouse CD8+ T cells – mouse 2C CD8+ T cells, flow cytometry, dose response (AID 485284); format: functional
Coagulation factor XII = molecular target: T5, Coagulation factor XII (Homo sapiens, UniProt P00748); test: activated coagulation factor XII inhibitor potency, concentration-effect curve, cell-free (AID 716); format: functional
T5 sequence (P00748 whole entry): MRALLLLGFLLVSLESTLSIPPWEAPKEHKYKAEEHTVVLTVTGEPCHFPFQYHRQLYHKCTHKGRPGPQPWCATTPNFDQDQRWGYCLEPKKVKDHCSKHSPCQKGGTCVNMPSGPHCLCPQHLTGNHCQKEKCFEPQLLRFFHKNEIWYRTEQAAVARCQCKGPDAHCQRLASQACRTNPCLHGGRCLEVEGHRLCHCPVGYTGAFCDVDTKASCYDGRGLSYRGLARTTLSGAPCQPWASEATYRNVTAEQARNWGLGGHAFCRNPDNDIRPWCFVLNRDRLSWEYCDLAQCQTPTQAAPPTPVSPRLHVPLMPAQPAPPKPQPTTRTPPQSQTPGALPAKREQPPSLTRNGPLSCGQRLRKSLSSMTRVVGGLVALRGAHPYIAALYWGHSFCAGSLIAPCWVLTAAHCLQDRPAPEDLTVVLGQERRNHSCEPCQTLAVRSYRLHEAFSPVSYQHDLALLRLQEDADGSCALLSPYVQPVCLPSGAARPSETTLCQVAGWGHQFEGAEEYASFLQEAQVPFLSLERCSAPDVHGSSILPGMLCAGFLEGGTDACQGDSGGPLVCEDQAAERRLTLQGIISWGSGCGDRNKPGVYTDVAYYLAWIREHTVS

[3] = molecular target: Complement C1s subcomponent (Homo sapiens, UniProt P09871); test: Complement C1s ELISA. [Related pubchem assays: 538, 787 ]; format: functional
Chain of Complement C1s subcomponent (P09871 16-437 limits assumed): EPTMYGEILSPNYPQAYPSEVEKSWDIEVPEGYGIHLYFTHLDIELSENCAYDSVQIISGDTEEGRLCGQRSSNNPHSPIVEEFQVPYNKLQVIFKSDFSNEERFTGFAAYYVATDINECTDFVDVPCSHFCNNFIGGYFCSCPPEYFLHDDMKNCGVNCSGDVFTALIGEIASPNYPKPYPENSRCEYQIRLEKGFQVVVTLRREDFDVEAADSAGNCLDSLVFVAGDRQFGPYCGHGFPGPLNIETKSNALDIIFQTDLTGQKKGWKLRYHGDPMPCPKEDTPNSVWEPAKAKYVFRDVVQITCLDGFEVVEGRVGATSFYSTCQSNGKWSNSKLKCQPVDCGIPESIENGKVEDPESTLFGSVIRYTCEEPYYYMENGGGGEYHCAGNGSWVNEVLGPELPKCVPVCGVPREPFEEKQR
Chain of Complement C1s subcomponent (P09871 438-688 limits assumed): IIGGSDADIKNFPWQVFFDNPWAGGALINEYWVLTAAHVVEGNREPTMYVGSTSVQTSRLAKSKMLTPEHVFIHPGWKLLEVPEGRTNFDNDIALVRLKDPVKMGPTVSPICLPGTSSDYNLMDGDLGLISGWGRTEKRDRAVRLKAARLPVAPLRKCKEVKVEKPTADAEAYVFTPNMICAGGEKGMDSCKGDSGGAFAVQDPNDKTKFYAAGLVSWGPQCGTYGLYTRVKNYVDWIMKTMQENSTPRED

HEK293 [4] = test: inhibition of NOD1-driven NF-kB reporter – cell-based, luminescence, uHTS, primary screen (AID 1578); format: functional; conditions: Homo sapiens
HEK293 [5] = test: NOD2 signaling inhibitors in MDP-stimulated cells, cell-based, uHTS, luminescence (AID 2001); format: functional; conditions: Homo sapiens
[6] = molecular target: Nucleotide-binding oligomerization domain-containing protein 2 (Homo sapiens, UniProt Q9HC29); test: inhibition of NOD2-driven NF-kB reporter – cell-based, luminescence, uHTS, HEK293 (AID 1566); format: functional
Chain of Nucleotide-binding oligomerization domain-containing protein 2 (Q9HC29 whole entry, the tested form may be a part): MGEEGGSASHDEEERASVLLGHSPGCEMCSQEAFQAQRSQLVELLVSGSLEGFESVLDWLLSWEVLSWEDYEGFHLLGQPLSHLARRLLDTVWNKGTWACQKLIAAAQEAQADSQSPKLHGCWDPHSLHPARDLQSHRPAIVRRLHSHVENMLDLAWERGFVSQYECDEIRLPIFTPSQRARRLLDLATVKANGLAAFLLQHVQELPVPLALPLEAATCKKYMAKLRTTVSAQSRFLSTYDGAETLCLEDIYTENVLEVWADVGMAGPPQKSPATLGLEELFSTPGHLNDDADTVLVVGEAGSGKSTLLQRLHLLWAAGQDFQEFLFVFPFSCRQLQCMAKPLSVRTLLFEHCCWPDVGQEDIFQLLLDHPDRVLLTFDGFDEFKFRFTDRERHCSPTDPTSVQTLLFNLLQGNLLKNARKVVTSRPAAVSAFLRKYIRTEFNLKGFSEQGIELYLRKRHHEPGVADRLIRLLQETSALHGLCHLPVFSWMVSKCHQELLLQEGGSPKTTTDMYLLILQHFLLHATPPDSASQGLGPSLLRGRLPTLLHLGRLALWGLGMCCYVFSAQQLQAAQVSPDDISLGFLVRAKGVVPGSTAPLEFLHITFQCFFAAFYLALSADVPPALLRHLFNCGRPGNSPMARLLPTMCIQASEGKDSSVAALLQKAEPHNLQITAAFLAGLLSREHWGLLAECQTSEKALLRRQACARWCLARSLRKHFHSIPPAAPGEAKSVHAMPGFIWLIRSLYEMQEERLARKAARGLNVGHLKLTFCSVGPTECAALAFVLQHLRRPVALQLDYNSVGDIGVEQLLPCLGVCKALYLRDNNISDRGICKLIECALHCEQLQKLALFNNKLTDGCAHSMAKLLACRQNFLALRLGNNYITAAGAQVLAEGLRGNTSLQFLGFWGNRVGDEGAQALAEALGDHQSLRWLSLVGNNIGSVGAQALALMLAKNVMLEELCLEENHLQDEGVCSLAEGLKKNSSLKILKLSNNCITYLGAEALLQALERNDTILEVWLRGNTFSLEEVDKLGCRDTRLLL

HEK293 [7] = test: cells; format: functional, cell-based; conditions: Homo sapiens
HEK293 [8] = test: cells; format: functional, cell-based; conditions: Homo sapiens; remark: listed apart in the source
Hexokinase = Hexokinase (Trypanosoma brucei, UniProt Q38C41); test: Confirmation assay for inhibitors of Trypanosoma brucei hexokinase 1-Analogue-first series. [Related pubchem assays (depositor defined):AID1430, AID1632, AID2516, AID2560, AID2579, AID2600, AID449725, AID492951]; format: functional
Chain of Hexokinase (Q38C41 whole entry): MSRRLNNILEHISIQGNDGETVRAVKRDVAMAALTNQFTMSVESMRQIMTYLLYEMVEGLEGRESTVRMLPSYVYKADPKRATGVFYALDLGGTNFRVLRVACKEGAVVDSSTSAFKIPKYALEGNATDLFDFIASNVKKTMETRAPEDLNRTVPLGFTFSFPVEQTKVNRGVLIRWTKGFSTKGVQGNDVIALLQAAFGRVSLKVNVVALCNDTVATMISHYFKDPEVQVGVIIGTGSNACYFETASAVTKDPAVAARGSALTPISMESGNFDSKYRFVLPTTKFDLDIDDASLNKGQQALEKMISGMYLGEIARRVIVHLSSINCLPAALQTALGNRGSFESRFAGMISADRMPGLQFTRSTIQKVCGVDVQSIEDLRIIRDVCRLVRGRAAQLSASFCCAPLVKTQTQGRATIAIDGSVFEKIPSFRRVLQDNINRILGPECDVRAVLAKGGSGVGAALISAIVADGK

[9] = molecular target: T6, DNA repair and recombination protein RAD54-like (Homo sapiens, UniProt Q92698); test: RAD54 Holliday junction migration blockers – biochemical, fluorescence, cherry-picked samples, dose series, confirmation (AID 651657); format: functional
T6 sequence (Q92698 whole entry): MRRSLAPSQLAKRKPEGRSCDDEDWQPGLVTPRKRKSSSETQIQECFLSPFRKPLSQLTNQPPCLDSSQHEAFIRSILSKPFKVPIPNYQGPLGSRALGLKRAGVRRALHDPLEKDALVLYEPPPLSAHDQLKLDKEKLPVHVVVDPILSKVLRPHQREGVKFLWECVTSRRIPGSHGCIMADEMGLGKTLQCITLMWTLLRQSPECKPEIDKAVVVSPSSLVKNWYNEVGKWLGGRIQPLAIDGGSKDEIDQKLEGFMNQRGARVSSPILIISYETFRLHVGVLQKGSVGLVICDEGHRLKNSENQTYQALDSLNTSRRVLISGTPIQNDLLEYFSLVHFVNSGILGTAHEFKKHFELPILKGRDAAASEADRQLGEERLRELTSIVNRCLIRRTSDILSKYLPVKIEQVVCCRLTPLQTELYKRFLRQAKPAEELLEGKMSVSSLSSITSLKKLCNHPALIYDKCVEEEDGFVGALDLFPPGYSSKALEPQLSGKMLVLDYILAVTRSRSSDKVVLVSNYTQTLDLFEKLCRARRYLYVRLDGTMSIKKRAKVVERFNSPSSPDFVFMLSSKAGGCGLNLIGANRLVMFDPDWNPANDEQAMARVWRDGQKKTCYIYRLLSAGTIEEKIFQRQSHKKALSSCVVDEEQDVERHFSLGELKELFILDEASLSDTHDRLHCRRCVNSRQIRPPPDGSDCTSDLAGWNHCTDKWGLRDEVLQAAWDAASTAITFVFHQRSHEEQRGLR

Kallikrein-7 = Kallikrein-7 (Homo sapiens, UniProt P49862); test: Fluorescence Intensity-based biochemical primary high throughput dose response assay to identify activators of kallikrein-7 (K7) zymogen.
Chain of Kallikrein-7 (P49862 whole entry, the tested form may be a part): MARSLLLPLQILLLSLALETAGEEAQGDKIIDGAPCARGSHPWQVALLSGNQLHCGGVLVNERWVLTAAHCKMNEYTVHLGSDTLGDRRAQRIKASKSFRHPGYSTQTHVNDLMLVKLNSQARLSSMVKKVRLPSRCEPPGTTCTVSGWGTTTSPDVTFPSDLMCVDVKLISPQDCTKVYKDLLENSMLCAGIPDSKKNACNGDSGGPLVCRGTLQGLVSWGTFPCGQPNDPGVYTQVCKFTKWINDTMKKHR

[10] = molecular target: T7, Type-1 angiotensin II receptor (Homo sapiens, UniProt P30556); test: agonist activity at AGTR1 – cell-based, uHTS hits, selectivity assay for APJ receptor agonist project, dose response (AID 488865); format: functional;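 also: beta-arrestin recruitment to AT1 measured by enzyme fragment complementation luminescence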
T7 sequence (P30556 whole entry): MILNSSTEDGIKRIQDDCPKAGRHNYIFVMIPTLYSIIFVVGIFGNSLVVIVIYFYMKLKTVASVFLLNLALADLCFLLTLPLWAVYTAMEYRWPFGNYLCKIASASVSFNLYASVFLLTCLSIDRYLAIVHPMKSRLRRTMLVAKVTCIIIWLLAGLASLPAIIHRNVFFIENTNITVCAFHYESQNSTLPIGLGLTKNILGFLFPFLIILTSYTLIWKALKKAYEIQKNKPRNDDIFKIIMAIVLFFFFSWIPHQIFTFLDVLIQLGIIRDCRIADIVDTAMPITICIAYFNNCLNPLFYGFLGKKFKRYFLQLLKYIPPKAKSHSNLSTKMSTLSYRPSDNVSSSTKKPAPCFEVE

Vibrio harveyi = test: LuxS/LuxPQ-dependent luminescence inhibition, V. harveyi – dry powder, set 2, dose response (AID 493072); format: functional, organism-based
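For CC50 in this document: cells exposed to compound for 72 hours before luminescence readout.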

Q: For `N#CC(C#N)C(c1ccsc1)c1c(-c2ccccc2)n[nH]c1O` (stereo unspecified), which IC50 (Galanin receptor type 3) is on record?
A: > 29.9 µM (inactive)

Q: What about the EC50 (cells) of the same compound?
A: 17.4 µM (inactive)

Q: What about the AC50 [1] of the same compound?
A: 2.85 µM (active)

Q: And the IC50 (Leucine aminopeptidase)?
A: 36.7 µM (active)

Q: And the CC50 [2]?
A: > 40 µM (active)

Q: What about the EC50 (Protein RecA) of the same compound?
A: 0.468 µM (active)

Q: With `CC1CCCCC1NC(=O)COC(=O)c1ccc2ncsc2c1` (stereo unspecified) as the compound, how does the EC50 (T-cell) read?
A: 48.4 µM (inactive)

Q: With `O=C(c1csc2c1CCCC2)n1cccn1` as the compound, how does the IC50 (Coagulation factor XII) read?
A: 5.39 µM (active)

Q: And the IC50 [3]?
A: > 50 µM (not active)

Q: Which results are given for `CCc1nc(SCC(=O)N2CCN(c3ccccc3)CC2)c2oc3ccccc3c2n1`?
A: EC50 (HEK293 [4]): 4.73 µM (active); IC50 (HEK293 [5]): 5.63 µM (inactive); EC50 [6]: > 20 µM (inactive); IC50 (HEK293 [7]): 17.7 µM (active); AC50 [1]: 2 µM (active); IC50 (HEK293 [8]): > 20 µM (inactive); EC50 (Protein RecA): > 380 µM (inactive)

Q: For `COC(=O)c1cc(Cl)ccc1NC(=O)c1ccc(OC)cc1`, which IC50 (Hexokinase) is on record?
A: > 25 µM (inactive)

Q: With `COc1cccc2sc3cc(NCC[C@@H]4CCCN4C)ccc3c(=O)c12` as the compound, how does the AC50 [9] read?
A: 9.49 µM (active)

Q: What about the EC50 (Kallikrein-7) of the same compound?
A: > 69.5 µM (inactive)

Q: And the EC50 [10]?
A: > 100 µM (inactive)

Q: With `Cc1cccc(NC(=O)c2ccc(Oc3ccccc3)cc2)n1` as the compound, how does the AC50 (Vibrio harveyi) read?
A: 15.2 µM (active)

From ChEMBL document CHEMBL1201862, “PubChem BioAssay data set” (2004)
